Measured values: US6514993B1, “Serotonin 5-HT1A and dopamin D2 receptor ligands” (H. Lundbeck A/S, priority 1994, dated 2003)
Counter-ions that a name gives are not always drawn.

Columns and labels:
[1] = Cataleptogenic effect; set-up: species or system rats; conditions: rat, in vivo; 1-6 h, sc; read-out: Catalepsy ED50
Excerpt: Evaluation of cataleptogenic effects of the compounds of the invention was made according to the method of Sanchez, C. et al.; Drug Dev. Res. 1991, 22, 239-250.

[2] = biological target: dopamine D2 receptors (Rattus norvegicus, UniProt P61169); test: Inhibition of 3H-spiroperidol binding to dopamine D2 receptors in rat brain in vitro; conditions: 3H-spiroperidol 0.5 nM, membranes from rat corpus striatum; read-out: 3H Spiroperidole (D2) binding IC50
Procedure: Inhibition of 3H-spiroperidol Binding to Dopamine D2 Receptors in Rat Brain in vitro
By this method the inhibition by drugs of the binding of the D2 antagonist ^3H-spiroperidol (0.5 nM) to D2 receptors in membranes from rat corpus striatum is determined in vitro. Accordingly, this is a test for affinity for the dopamine D2 receptor.

[3] = biological target: T1, 5-HT1A receptors (Rattus norvegicus, UniProt P19327); test: Inhibition of 3H-8-OH-DPAT binding to serotonin 5-HT1A receptors in rat brain in vitro; set-up: 5-HT1A receptors in membranes from rat brain minus cerebellum; from tissue; host or cells: rat brain minus cerebellum (membranes); conditions: 3H-8-OH-DPAT 1 nM, membranes from rat brain minus cerebellum
T1 sequence (P19327 1-422): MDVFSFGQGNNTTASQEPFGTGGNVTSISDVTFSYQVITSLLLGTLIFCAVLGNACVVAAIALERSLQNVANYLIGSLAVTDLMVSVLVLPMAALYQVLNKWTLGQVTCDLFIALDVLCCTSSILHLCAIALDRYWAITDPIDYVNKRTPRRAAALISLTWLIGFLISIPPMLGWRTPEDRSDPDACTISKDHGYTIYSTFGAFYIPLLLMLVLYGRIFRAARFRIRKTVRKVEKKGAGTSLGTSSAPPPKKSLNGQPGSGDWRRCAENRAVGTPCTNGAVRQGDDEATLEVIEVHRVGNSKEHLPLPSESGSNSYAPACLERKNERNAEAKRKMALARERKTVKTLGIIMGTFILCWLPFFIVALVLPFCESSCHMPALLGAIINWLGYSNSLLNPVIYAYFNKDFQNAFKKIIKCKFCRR
Procedure: Inhibition of ^3H8-OH-DPAT Binding to Serotonin 5-HT1A Receptors in Rat Brain in vitro
By this method the inhibition by drugs of the binding of the 5-HT1A agonist 3H-8-OH-DPAT (1 nM) to 5-HT1A receptors in membranes from rat brain minus cerebellum is determined in vitro. Accordingly, this is a test for affinity for the 5-HT1A receptor. The test was performed as described by Hyttel et al., Drug Dev. Res. 1988, 15, 389-404.

[4] = biological target: T1, 5-HT1A receptors; set-up: antagonist effects of a test compound on 5-HT1A receptors in vivo; from tissue; host or cells: whole animal (rat), in vivo behavioural test; conditions: partial 5-HT1A agonists; cited from earlier work

Sequence of dopamine D2 receptors (P61169 1-415 isoform P61169-2): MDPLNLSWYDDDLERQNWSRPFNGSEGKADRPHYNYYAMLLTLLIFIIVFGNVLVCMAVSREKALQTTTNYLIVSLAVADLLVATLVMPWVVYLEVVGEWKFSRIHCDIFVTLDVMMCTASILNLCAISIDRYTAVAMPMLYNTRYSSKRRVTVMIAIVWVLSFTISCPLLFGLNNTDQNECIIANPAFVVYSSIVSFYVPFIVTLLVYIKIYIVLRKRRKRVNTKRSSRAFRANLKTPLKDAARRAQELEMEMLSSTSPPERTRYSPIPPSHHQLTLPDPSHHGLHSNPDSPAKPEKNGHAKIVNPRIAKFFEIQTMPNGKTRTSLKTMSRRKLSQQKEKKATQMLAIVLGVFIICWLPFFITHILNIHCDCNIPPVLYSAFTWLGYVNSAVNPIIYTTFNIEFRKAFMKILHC

SMILES | ED50 [1] [µmol/kg] | IC50 [2] [nM] | melting point [°C] | IC50 [3] [nM] | Inhibition of 5-MeO-DMT-induced 5-HT syndrome (general statement) [4]
O=C(CCCN1CCC(O)(c2ccc(Cl)cc2)CC1)c1ccc(F)cc1 [haloperidol, reference compound] | 0.36 |  |  |  | 
CC(C)Oc1ccccc1N1CCN(CCCCN2CCN(c3ccc(F)cc3)C2=O)CC1 [Compound 4b, 3-(4-Fluorophenyl)-1-[4-[4-[2-(2-propyloxy)phenyl]-1-piperazinyl]butan-1-yl]-2-imidazolidinone] | > 44 | 3.9 | 135 to 137 | 2.2 | 
Cl.Cl.O=C1N(CCCCN2CCN(c3ccccc3OC3CCCC3)CC2)CCN1C1CCCCC1 [Compound 4c, 3-Cyclohexyl-1-[4-[4-(2-cyclopentyloxyphenyl)-1-piperazinyl]butan-1-yl]-2-imidazolidinone, dihydrochloride] | > 37 | 13 | 182 to 193 | 5.4 | 
CC(C)Oc1ccccc1C1CCN(CCCN2CCN(C3CCCCC3)C2=O)CC1.O=C(O)C(=O)O [Compound 6c, 3-Cyclohexyl-1-[3-[4-[2-(2-propyloxy)phenyl]-1-piperidinyl]-1-propyl]-2-imidazolidinone, oxalate] |  | 110 | 136 to 139 | 35 | 
O=C(O)C(=O)O.O=C1N(CCCCN2CCC(c3ccccc3OCC3CC3)CC2)CCN1C1CCCCC1 [Compound 6f, 3-Cyclohexyl-1-[4-[4-[2-(cyclopropylmethoxy)phenyl]-1-piperidinyl]butan-1-yl]-2-imidazolidinone, oxalate] |  | 37 | 186 to 193 | 26 | 
O=C1N(CCCCN2CCN(c3ccccc3OS(=O)(=O)C(F)(F)F)CC2)CCN1C1CCCCC1 [Compound 7b, 3-Cyclohexyl-1-[4-[4-[2-(2-trifluoromethylsulfonyloxy)phenyl]-1-piperazinyl]butan-1-yl]-2-imidazolidinone, hydrochloride] | > 35 | 49 |  | 42 | 
CC(C)Oc1ccccc1C1CCN(CCCCn2ccn(C34CC5CC(CC(C5)C3)C4)c2=O)CC1.O=C(O)C(=O)O |  |  | 116 to 122 |  | 
CC(C)Oc1ccccc1C1CCN(CCCCN2CCN(C3CCCCC3)C2=O)CC1.O=C(O)C(=O)O [Compound 6b, 3-Cyclohexyl-1-[4-[4-[2-(2-propyloxy)phenyl]-1-piperidinyl]butan-1-yl]-2-imidazolidinone, oxalate] | > 38 | 8.7 | 138 to 141 | 5.4 | 
CC(C)Oc1ccccc1N1CCN(CCCCN2CCN(C3CCCCC3)C2=O)CC1.O=C(O)C(=O)O [Compound 4a, 3-Cyclohexyl-1-[4-[4-[2-(2-propyloxy)phenyl]-1-piperazinyl]butan-1-yl]-2-imidazolidinone, Oxalate] | > 38 | 6.4 |  | 1.8 | 
CC(C)Oc1ccccc1C1CCN(CCCCN2CCN(C(C)C)C2=O)CC1.O=C(O)C(=O)O [Compound 6d, 3-(2-Propyl)-1-[4-[4-[2-(2-propyloxy)phenyl]-1-piperidinyl]-1-butyl]-2-imidazolidinone, oxalate] | > 41 | 7.7 | 82 to 84 | 5 | 
CC(C)Oc1ccccc1C1CCN(CCCCn2ccn(C3CCCCC3)c2=O)CC1.O=C(O)C(=O)O [Compound 6h, 3-Cyclohexyl-1-[4-[4-[2-(2-propyloxy)phenyl]-1-piperidinyl]butan-1-yl]-1,3-dihydroimidazol-2-one, oxalate] | > 38 | 10 | 68 to 71 | 4.1 | 
O=C1N(CCCCN2CCN(c3ccccc3OS(=O)(=O)C(F)(F)F)CC2)CCN1C1CCCCC1 (as salt: hydrochloride) [Compound 7b, 3-Cyclohexyl-1-[4-[4-[2-(2-trifluoromethylsulfonyloxy)phenyl]-1-piperazinyl]butan-1-yl]-2-imidazolidinone, hydrochloride] |  |  | 153 to 154 |  | 
O=C1N(CCCCN2CCC(c3ccccc3OS(=O)(=O)C(F)(F)F)CC2)CCN1c1ccc(F)cc1 [Compound 7a, 3-(4-Fluorophenyl)-1-[4-[4-[2-(2-trifluoromethylsulfonyloxy)phenyl]-1-piperidinyl]butan-1-yl]-2-imidazolidinone] |  | 41 |  | 37 | 
CC(C)Oc1ccccc1N1CCN(CCCN2CCN(c3ccccc3)C2=O)CC1 [Compound 4e, 1-[3-[4-(2-(2-propyloxy)phenyl)-1-piperazinyl]-1-propyl]-3-phenyl-2-imidazolidinone] | > 34 | 24 | 167 to 168 | 40 | 
CC(C)Oc1ccccc1C1CCN(CCCCCCN2CCN(C3CCCCC3)C2=O)CC1.O=C(O)C(=O)O [Compound 6e, 3-Cyclohexyl-1-[6-[4-[2-(2-propyloxy)phenyl]-1-piperidinyl]-1-hexyl]-2-imidazolidinone, oxalate] | > 33 | 16 | 77 to 79 | 20 | 
CC(C)Oc1ccccc1C1=CCN(CCCCn2ccn(C3CCCCC3)c2=O)CC1 [Compound 9d, 3-Cyclohexyl-1-[4-[4-[2-(2-propyloxy)phenyl]-1,2,3,6-tetrahydropyridin-1-yl]butan-1-yl]-2,3-dihydroimidazol-2-one] |  | 27 |  | 26 | 
O=C1CC2(CCCC2)CC(=O)N1CCCCN1CCN(c2ncccn2)CC1 [buspirone, 8-[4-[4-(2-pyrimidyl)-1-piperazinyl]butyl]-8-azaspiro[4,5]decane-7,9-dione] |  |  |  |  | inhibit the characteristic 5-HT syndrome produced by 5-MeO DMT
CC(C)Oc1ccccc1C1=CCN(CCCCN2CCN(C3CCCCC3)C2=O)CC1.O=C(O)C(=O)O [Compound 9a, 3-Cyclohexyl-1-[4-[4-[2-(2-propyloxy)phenyl]-1,2,3,6-tetrahydropyridin-1-yl]butan-1-yl]-2-imidazolidinone Oxalate] | > 38 | 8.7 |  | 9 | 
O=C1N(CCCCN2CCN(c3ccccc3OS(=O)(=O)C(F)(F)F)CC2)CCN1c1ccc(F)cc1 [Compound 7c, 3-(4-Fluorophenyl)-1-[4-[4-[2-(2-trifluoromethylsulfonyloxy)phenyl]-1-piperazinyl]butan-1-yl]-2-imidazolidinone] | > 37 | 57 | 68 to 70 | 15 | 
CC(C)Oc1ccccc1C1=CCN(CCCCN2CCN(c3ccc(F)cc3)C2=O)CC1.O=C(O)C(=O)O [Compound 9b, 3-(4-Fluorophenyl)-1-[4-[4-[2-(2-propyloxy)phenyl]-1,2,3,6-tetrahydropyridin-1-yl]butan-1-yl]-2-imidazolidinone oxalate] | > 37 | 11 | 150 to 152 | 2.8 | 
O=C1N(CCCCN2CCN(c3ccccc3OC3CCCC3)CC2)CCN1c1ccc(F)cc1 [Compound 4d, 1-[4-[4-(2-Cyclopentyloxyphenyl)-1-piperazinyl]butan-1-yl]-3-(4-fluorophenyl)-2-imidazolidinone] | > 42 | 15 | 111 to 116 | 4 | 
CC(C)(C)COc1ccccc1C1CCN(CCCCN2CCN(C3CCCCC3)C2=O)CC1.O=C(O)C(=O)O |  |  | 162 to 168 |  | 
CC(C)Oc1ccccc1C1=CCN(CCCCn2ccn(C34CC5CC(CC(C5)C3)C4)c2=O)CC1.O=C(O)C(=O)O |  |  | 104 to 109 |  | 
CC(C)Oc1ccccc1C1CCN(CCCCN2CCN(c3ccc(F)cc3)C2=O)CC1.O=C(O)C(=O)O [Compound 6a, 3-(4-Fluorophenyl)-1-[4-[4-[2-(2-propyloxy)phenyl]-1-piperidinyl]butan-1-yl]-2-imidazolidinone, Oxalate] | > 44 | 7.9 |  | 4.8 | 
